In patent US6004950A, “2-aminopyridines as inhibitors of cyclooxygenase-2” (Merck Frosst Canada, Inc., priority 1998, dated 1999):

Assays:
COX-1 [1] = molecular target: T1, COX-1 (Homo sapiens, UniProt P23219); test: Assay of COX-1 activity from U937 cell microsomes; format: biochemical; set-up: Assay of COX-1 Activity from U937 cell microsomes; endogenous in cells; host or cells: U937 cells, 100,000×g microsomal pellet
Procedure: Assay of COX-1 Activity from U937 cell microsomes
U 937 cells are pelleted by centrifugation at 500×g for 5 min and washed once with phosphate-buffered saline and repelleted. Cells are resuspended in homogenization buffer consisting of 0.1 M Tris-HCl, pH 7.4, 10 mM EDTA, 2 μg/ml leupeptin, 2 μg/ml soybean trypsin inhibitor, 2 μg/ml aprotinin and 1 mM phenyl methyl sulfonyl fluoride. The cell suspension is sonicated 4 times for 10 sec and is centrifuged at 10,000×g for 10 min at 4° C. The supernatant is centrifuged at 100,000×g for 1 hr at 4° C. The 100,000×g microsomal pellet is resuspended in 0.1 M Tris-HCl, pH 7.4, 10 mM EDTA to approximately 7 mg protein/ml and stored at -80° C.
Microsomal preparations are thawed immediately prior to use, subjected to a brief sonication, and then diluted to a protein concentration of 125 μg/ml in 0.1 M Tris-HCl buffer, pH 7.4 containing 10 mM EDTA, 0.5 mM phenol, 1 mM reduced glutathione and 1 μM hematin. Assays are performed in duplicate in a final volume of 250 μl. Initially, 5 μl of DMSO vehicle or drug in DMSO are added to 20 μl of 0.1 M Tris-HCl buffer, pH 7.4 containing 10 mM EDTA in wells of a 96-deepwell polypropylene titre plate. 200 μl of the microsomal preparation are then added and pre-incubated for 15 min at room temperature before addition of 25 μl of […] arachidonic acid in […] Tris-HCl and 10 mM EDTA, pH 7.4. Samples are incubated for 40 min at room temperature and the reaction is stopped by the addition of 25 μl of 1 N HCl. Samples are neutralized with 25 μl of 1 N NaOH prior to quantitation of PGE2 content by radioimmunoassay (Dupont-NEN or Amersham assay kits). Cyclooxygenase activity is defined as the difference between PGE2 levels in samples incubated in the presence of arachidonic acid and ethanol vehicle.
In the assay, inhibition is determined by measuring the amount of prostaglandin E2 (PGE2) synthesized in the presence of arachidonic acid, cyclooxygenase-1 or cyclooxygenase-2 and a putative inhibitor.

COX-2 [2] = molecular target: T2, COX-2 (Homo sapiens, UniProt P35354); test: Whole cell assay for COX-2 using CHO transfected cell line CHO[hCOX-2], inhibition of PGE2 synthesis; format: cell-based; conditions: CHO[hCOX-2] cells, 10 μM AA, PGE2; read-out: COX-2 (IC50 mM) CHO
T2 construct: incubation of human whole blood with LPS, which induces COX-2; endogenous in cells; host or cells: heparinized fresh whole blood of human volunteers, incubated with LPS for 24 h
T2 sequence (P35354 18-604): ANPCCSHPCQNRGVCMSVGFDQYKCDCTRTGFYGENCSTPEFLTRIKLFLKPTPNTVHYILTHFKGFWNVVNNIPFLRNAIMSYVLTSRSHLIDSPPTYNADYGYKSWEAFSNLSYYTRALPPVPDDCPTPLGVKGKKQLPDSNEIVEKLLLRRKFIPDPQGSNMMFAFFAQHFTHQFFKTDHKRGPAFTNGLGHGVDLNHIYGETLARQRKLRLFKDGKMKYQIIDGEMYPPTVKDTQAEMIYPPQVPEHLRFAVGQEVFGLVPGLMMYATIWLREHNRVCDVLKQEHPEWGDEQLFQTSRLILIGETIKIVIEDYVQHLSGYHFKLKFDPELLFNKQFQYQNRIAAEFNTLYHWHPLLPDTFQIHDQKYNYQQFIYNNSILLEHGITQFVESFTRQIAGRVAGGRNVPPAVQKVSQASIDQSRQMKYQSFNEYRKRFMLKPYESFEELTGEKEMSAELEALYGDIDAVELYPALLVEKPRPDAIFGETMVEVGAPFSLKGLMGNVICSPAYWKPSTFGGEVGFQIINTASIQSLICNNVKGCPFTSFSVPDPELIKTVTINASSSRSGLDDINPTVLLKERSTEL

COX-2 [3] = molecular target: T2, COX-2; test: Human whole blood assay, COX-2 (LPS-induced PGE2 production); format: cell-based; conditions: human whole blood, LPS-induced PGE2, 24 h; read-out: COX-2 (IC50 mM) HWB
From the text: (§1) As well, platelets in whole blood contain a large amount of the COX-1 enzyme. Immediately following blood clotting, platelets are activated through a thrombin-mediated mechanism. This reaction results in the production of thromboxane B2 (TxB2) via activation of COX-1. Thus, the effect of test compounds on TxB2 levels following blood clotting can be examined and used as an index for COX-1 activity. Therefore, the degree of selectivity by the test compound can be determined by measuring the levels of PGE2 after LPS induction (COX-2) and TxB2 following blood clotting (COX-1) in the same assay.
A. COX-2 (LPS-induced PGE2 production)
Fresh blood is collected in heparinized tubes by venipuncture from both male and female volunteers. The subjects have no apparent inflammatory conditions and have not taken any NSAIDs for at least 7 days prior to blood collection. Plasma is immediately obtained from a 2 mL blood aliquot to use as blank (basal levels of PGE2).

COX-1 [4] = molecular target: T1, COX-1; test: Human whole blood assay, COX-1 (clotting-induced TxB2 production); format: cell-based; set-up: platelets in whole blood contain a large amount of the COX-1 enzyme; endogenous in cells; host or cells: fresh human whole blood without anticoagulant (platelets), clotted 1 h at 37° C; conditions: clotting-induced TxB2, 1 h, read-out: COX-1 (IC50 mM) HWB
Procedure: as §1, with “Human whole blood provides a protein and cell-rich milieu appropriate for the study of biochemical efficacy of anti-inflammatory compounds such as selective COX-2 inhibitors. […] This is consistent with the observation that COX-2 inhibitors have no effect on PGE2 production in normal blood. These inhibitors are active only after incubation of human whole blood with LPS, which induces COX-2. This assay can be used to evaluate the inhibitory effect of selective COX-2 inhibitors on PGE2 production. As” for “As”
B. COX-1 (Clotting-induced TxB2 production)
Fresh blood is collected into vacutainers containing no anticoagulants. […] The tubes are vortexed and incubated at 37° C. for 1 hour to allow blood to clot. At the end of incubation, serum is obtained by centrifugation (12,000×g for 5 min.). […]

[5] = U937 cell microsomes, PGE2, read-out: COX-1 (IC50 mM) U-937

T1 sequence (P23219 24-599): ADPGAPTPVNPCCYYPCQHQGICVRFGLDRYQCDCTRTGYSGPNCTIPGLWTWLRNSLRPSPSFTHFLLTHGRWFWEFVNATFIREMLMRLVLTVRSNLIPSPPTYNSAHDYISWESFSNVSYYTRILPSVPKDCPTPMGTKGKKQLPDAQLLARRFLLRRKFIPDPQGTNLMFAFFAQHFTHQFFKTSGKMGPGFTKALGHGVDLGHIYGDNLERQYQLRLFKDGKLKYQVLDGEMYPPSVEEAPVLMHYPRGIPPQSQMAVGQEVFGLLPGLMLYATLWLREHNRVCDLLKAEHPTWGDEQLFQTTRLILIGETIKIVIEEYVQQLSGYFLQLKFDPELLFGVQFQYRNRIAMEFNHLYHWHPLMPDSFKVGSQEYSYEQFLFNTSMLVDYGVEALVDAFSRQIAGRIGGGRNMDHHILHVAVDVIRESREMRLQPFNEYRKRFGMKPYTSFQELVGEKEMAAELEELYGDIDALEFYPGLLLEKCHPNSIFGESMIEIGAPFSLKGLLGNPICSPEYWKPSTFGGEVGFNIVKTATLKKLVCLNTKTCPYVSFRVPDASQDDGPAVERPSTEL

Structure (SMILES) | IC50 (COX-1 [1]; [5]) | IC50 (COX-2 [2]) | IC50 (COX-2 [3]) | IC50 (COX-1 [4]) | IC50 (COX-1 [1])
CS(=O)(=O)c1ccc(-c2cc(C(F)(F)F)cnc2N2CCCCC2)cc1 [Example 2, 3-(4-Methylsulfonyl)phenyl-2-piperidin-1-yl-5-trifluoromethylpyridine] | 0.003 mM | 0.004 µM | 0.0003 mM | > 0.1 mM | 
CS(=O)(=O)c1ccc(-c2cc(C(F)(F)F)cnc2N2CCCCC2CO)cc1 (stereo not shown) [Example 13, 3-(4-Methylsulfonyl)phenyl-2-(2-hydroxymethyl)piperidin-1-yl-5-trifluoromethylpyridine] | 0.01 mM | 0.1 µM | 0.0027 mM |  | 
CC1(CO)CCCN(c2ncc(C(F)(F)F)cc2-c2ccc(S(C)(=O)=O)cc2)C1 (stereo not shown) [Example 17, 3-(4-Methylsulfonyl)phenyl-2-(3-hydroxymethyl-3-methyl)piperidin-1-yl-5-trifluoromethylpyridine] | > 0.01 mM | 0.4 µM | 0.0053 mM |  | 
CS(=O)(=O)c1ccc(-c2cc(C(F)(F)F)cnc2N2CCCCC(CO)C2)cc1 (stereo not shown) [Example 18, 3-(4-Methylsulfonyl)phenyl-2-(3-hydroxymethyl)homopiperidin-1-yl-5-trifluoromethylpyridine] | > 0.01 mM | 0.08 µM | 0.0234 mM |  | 
CS(=O)(=O)c1ccc(-c2cc(C(F)(F)F)cnc2N2CCCCC2CCO)cc1 (stereo not shown) [Example 19, 3-(4-Methylsulfonyl)phenyl-2-(2-(2-hydroxyethyl))piperidin-1-yl-5-trifluoromethylpyridine] | > 0.01 mM | 0.92 µM | 0.0032 mM |  | 
CS(=O)(=O)c1ccc(-c2cc(C(F)(F)F)cnc2N2CCC(=O)CC2)cc1 [Example 20, 3-(4-Methylsulfonyl)phenyl-2-(4-oxo)piperidin-1-yl-5-trifluoromethylpyridine] | > 0.01 mM | 0.09 µM | 0.0104 mM |  | 
CS(=O)(=O)c1ccc(-c2cc(C(F)(F)F)cnc2N2CCCC(=O)C2)cc1 [Example 21, 3-(4-Methylsulfonyl)phenyl-2-(3-oxo)piperidin-1-yl-5-trifluoromethylpyridine] | > 0.01 mM | 0.11 µM | 0.0053 mM |  | 
CS(=O)(=O)c1ccc(-c2cc(C(F)(F)F)cnc2N2CCC(O)CC2)cc1 [Example 22, 3-(4-Methylsulfonyl)phenyl-2-(4-hydroxy)piperidin-1-yl-5-trifluoromethylpyridine] | > 0.01 mM | 0.03 µM | 0.0108 mM |  | 
CS(=O)(=O)c1ccc(-c2cc(C(F)(F)F)cnc2N2CCCC(O)C2)cc1 (stereo not shown) [Example 23, 3-(4-Methylsulfonyl)phenyl-2-(3-hydroxy)piperidin-1-yl-5-trifluoromethylpyridine] |  | 0.03 µM | 0.0075 mM |  | > 0.01 mM
CS(=O)(=O)c1ccc(-c2cc(C(F)(F)F)cnc2N2CCC(F)(F)CC2)cc1 [Example 24, 2-(4,4-Difluoro)piperidin-1-yl-3-(4-methylsulfonyl)phenyl-5-trifluoromethylpyridine] | > 0.01 mM | 0.02 µM | 0.0103 mM |  | 
CS(=O)(=O)c1ccc(-c2cc(C(F)(F)F)cnc2N2CCCC(F)(F)C2)cc1 [Example 25, 2-(3,3-Difluoro)piperidin-1-yl-3-(4-methylsulfonyl)phenyl-5-trifluoromethylpyridine] | > 0.01 mM | 0.08 µM | 0.0047 mM |  | 
CS(=O)(=O)c1ccc(-c2cc(C(F)(F)F)cnc2N2CCC(F)CC2)cc1 [Example 26, 2-(4-Fluoro)piperidin-1-yl-3-(4-methylsulfonyl)phenyl-5-trifluoromethylpyridine] | 0.003 to 0.01 mM | 0.01 µM | 0.0017 mM |  | 
CS(=O)(=O)c1ccc(-c2cc(C(F)(F)F)cnc2N2CCOCC2)cc1 [Example 27, 3-(4-Methylsulfonyl)phenyl-2-morpholin-4-yl-5-trifluoromethylpyridine] | > 0.01 mM | 0.06 µM | 0.0036 mM |  | 
CS(=O)(=O)c1ccc(-c2cc(C(F)(F)F)cnc2N2CCSCC2)cc1 [Example 28, 3-(4-Methylsulfonyl)phenyl-2-thiomorpholin-4-yl-5-trifluoromethylpyridine] | 0.003 to 0.01 mM | 0.03 µM | 0.0014 mM |  | 
